Experimental data published in ChEMBL document CHEMBL1131277, “Functionalized 1,3-teraryls as a new class of hepatoprotectants. Part V” (1998).

Legend:
Assay type in all cases: functional
Rattus norvegicus [1] = assay: Hepatoprotective activity against thioacetamide-induced toxicity in various levels of serum ALP in rats was evaluated at 10 mg/kg dose (p.o. x 7 days)
Rattus norvegicus [2] = assay: Hepatoprotective activity against thioacetamide-induced toxicity in various levels of serum GOT in rats was evaluated at 10 mg/kg dose (p.o. x 7 days)
Rattus norvegicus [3] = assay: Hepatoprotective activity against thioacetamide-induced toxicity in various levels of serum GPT in rats was evaluated at 10 mg/kg dose (p.o. x 7 days)
Rattus norvegicus [4] = species on record: Rattus norvegicus; assay: Percent protection afforded by the compound in serum alkaline phosphatase (APL) level was determined; design: concentration or dose not given beside the values
Rattus norvegicus [5] = species on record: Rattus norvegicus; assay: Percent protection afforded by the compound in serum glutamate oxaloacetate transaminase (GOT) level was determined; design: concentration or dose not given beside the values
Rattus norvegicus [6] = species on record: Rattus norvegicus; assay: Percent protection afforded by the compound in serum glutamate pyruvate transaminase (GPT) level was determined; design: concentration or dose not given beside the values

| Compound | Enzyme level (Rattus norvegicus [1]; route oral) | Enzyme level (Rattus norvegicus [2]; route oral) | Enzyme level (Rattus norvegicus [3]; route oral) | Protection (Rattus norvegicus [4]) | Protection (Rattus norvegicus [5]) | Protection (Rattus norvegicus [6]) | Enzyme level (Rattus norvegicus [1]) | Enzyme level (Rattus norvegicus [2]) | Enzyme level (Rattus norvegicus [3]) |
| --- | --- | --- | --- | --- | --- | --- | --- | --- | --- |
| COC(=O)c1c(SC)cc(-c2ccc(Cl)cc2)cc1-c1ccc(Cl)cc1 | 268.2 U l-1 | 186.3 U l-1 | 248.5 U l-1 | 33% | 37% | 51% | – | – | – |
| COC(=O)c1c(SC)cc(-c2ccc(Cl)cc2)cc1-c1ccc([N+](=O)[O-])cc1 | 289.9 U l-1 | 229.4 U l-1 | 270.4 U l-1 | 24% | 5% | 44% | – | – | – |
| COC(=O)c1c(SC)cc(-c2ccc(Cl)cc2)cc1-c1ccc(F)cc1 | 334.2 U l-1 | 222.3 U l-1 | 392.3 U l-1 | 6% | 10% | 5% | – | – | – |
| COC(=O)c1c(SC)cc(-c2ccc(Cl)cc2)cc1-c1ccc(Br)cc1 | 330.2 U l-1 | 208.3 U l-1 | 361.5 U l-1 | 8% | 20% | 15% | – | – | – |
| COC(=O)c1c(SC)cc(-c2ccc(F)cc2)cc1-c1ccc(F)cc1 | 341.2 U l-1 | 229.1 U l-1 | 370.2 U l-1 | 3% | 5% | 12% | – | – | – |
| COC(=O)c1c(SC)cc(-c2ccc(F)c(Cl)c2)cc1-c1cccc([N+](=O)[O-])c1 | 304.1 U l-1 | 211.6 U l-1 | 370.2 U l-1 | 18% | 18% | 12% | – | – | – |
| SILYMARIN | – | – | – | 52% | 64% | 61% | 220 U l-1 | 150 U l-1 | 218 U l-1 |
| COC(=O)c1c(SC)cc(-c2ccc(Cl)cc2)cc1-c1cccc([N+](=O)[O-])c1 | 203.6 U l-1 | 149.9 U l-1 | 190.1 U l-1 | 60% | 64% | 70% | – | – | – |
| COC(=O)c1c(SC)cc(-c2ccc(F)cc2)cc1-c1ccc(Cl)c(Cl)c1 | 235.5 U l-1 | 159.3 U l-1 | 186.3 U l-1 | 46% | 57% | 71% | – | – | – |
| COC(=O)c1c(SC)cc(-c2ccc(F)cc2)cc1-c1cccc([N+](=O)[O-])c1 | 307.2 U l-1 | 208.9 U l-1 | 360.1 U l-1 | 17% | 20% | 15% | – | – | – |
| COC(=O)c1c(SC)cc(-c2ccc(Cl)cc2)cc1-c1ccc(Cl)c(Cl)c1 | 245.1 U l-1 | 147.3 U l-1 | 258.1 U l-1 | 42% | 66% | 49% | – | – | – |
| COC(=O)c1c(SC)cc(-c2ccc(Br)cc2)cc1-c1ccc(Br)cc1 | 324.2 U l-1 | 202.1 U l-1 | 295.4 U l-1 | 10% | 25% | 36% | – | – | – |
